# Measured values as given in PMC9817100, “Preclinical profiles of SKB264, a novel anti-TROP2 antibody conjugated to topoisomerase inhibitor, demonstrated promising antitumor efficacy compared to IMMU-132” (Frontiers in Oncology, 2022).
# Like-named read-outs stand apart in the source and are kept apart here.
# How the values were obtained:
# HCC1806 cells = test: endocytosis (internalization) experiment in HCC1806; assay type: cell-based, human
# Experimental: (§1) To examine whether the anti-TROP2 mAb plays a targeting role via specifically recognizing the highly expressed TROP2 on the surface of tumor cells, the following experiments were conducted ([17]).
# (§2) Figure 2 In vitro activities of SKB264. (A) Binding to human TROP2 estimated by ELISA (duplicates, mean ± SEM). (B) SKB264 binding to HCC1806 and NCI-N87 estimated by FACS. (C) Internalization of SKB264 or SKB264 mAb in HCC1806 and NCI-N87 cells. (D) In vitro cell growth inhibitory activity (triplicates, mean ± SEM) in HCC1806, NCI-N87, BxPC-3, Calu-3, NCI-H23 (TROP2+), and NCI-H23 (parental) cells.
# [1] = tested on: TROP2-positive cells NCI-N87; test: cell-level binding to NCI-N87 by FACS; design: species or system human; details: read-out: Antibody EC50 determination on NCI-N87
# Experimental: as §1, §2
# Human TROP2 protein [2] = biological target: T1, Human TROP2 protein (Homo sapiens, UniProt P09758); test: ELISA binding to human TROP2 protein; design: purchased Sino Biological Inc, Wayne, PA
# T1 sequence (P09758 27-323): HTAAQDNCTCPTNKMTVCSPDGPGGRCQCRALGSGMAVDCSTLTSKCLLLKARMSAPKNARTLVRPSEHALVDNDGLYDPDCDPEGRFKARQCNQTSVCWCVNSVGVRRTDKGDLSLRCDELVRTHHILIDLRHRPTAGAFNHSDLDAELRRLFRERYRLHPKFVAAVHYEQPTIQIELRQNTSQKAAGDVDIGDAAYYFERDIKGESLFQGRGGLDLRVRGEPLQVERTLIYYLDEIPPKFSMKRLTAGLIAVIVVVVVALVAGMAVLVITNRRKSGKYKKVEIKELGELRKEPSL
# Experimental: (§3) An enzyme-linked immunosorbent assay (ELISA) was used to evaluate the binding and dynamics affinity. Human TROP2 protein (1 μg/ml) (Sino Biological Inc, Wayne, PA) was coated on a 96-well plate overnight at 4°C. The plate was then blocked by Super block reagent (ScyTek Inc. Logan UT) at room temperature for 1 h. Diluted SKB264, SKB264 mAb, or isotype control (human IgG1 antibody) was added for incubation at 37°C for 1 h. After washing, the diluted (1:10,000) goat anti-human IgG Fc-horseradish peroxidase (HRP) (Abcam, Waltham, MA) was added for further incubation for 45 min at 37°C. Finally, TMB solution was added for absorbance measurement at 450 nm using a SpectraMax Plus384 Microplate reader (Molecular Devices, USA).
# [3] = tested on: TROP2-positive cells HCC1806; test: cell-level binding to HCC1806 by FACS; design: species or system human; details: read-out: Antibody EC50 determination on HCC1806
# Experimental: as §1, §2
# monkey TROP2 = test: ELISA binding to monkey TROP2
# Experimental: as §3
# (§4) Firstly, the affinities of SKB264 and SKB264 mAb to TROP2 of different species were evaluated by ELISA. […] Therefore, we performed the pharmacokinetic experiments in cynomolgus monkeys.
# rat TROP2 protein = test: ELISA binding to rat TROP2
# Experimental: as §3, §4
# NCI-N87 cells = test: endocytosis (internalization) experiment in NCI-N87; assay type: cell-based, human
# Experimental: as §1, §2
# mouse TROP2 protein = biological target: T2, mouse TROP2 protein (Mus musculus, UniProt Q8BGV3); test: ELISA binding to mouse TROP2
# T2 sequence (Q8BGV3 25-317): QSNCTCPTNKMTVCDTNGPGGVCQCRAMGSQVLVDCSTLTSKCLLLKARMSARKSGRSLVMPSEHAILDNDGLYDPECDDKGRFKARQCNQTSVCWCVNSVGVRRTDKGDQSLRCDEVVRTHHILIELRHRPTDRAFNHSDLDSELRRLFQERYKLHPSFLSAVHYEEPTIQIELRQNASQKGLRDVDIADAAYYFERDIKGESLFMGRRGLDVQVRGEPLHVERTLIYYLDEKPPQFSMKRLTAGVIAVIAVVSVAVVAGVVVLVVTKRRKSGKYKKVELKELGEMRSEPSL
# Experimental: as §3, §4
# [4] = in vitro stability in monkey plasma (payload release); assay type: in vitro ADME, cynomolgus monkeys; details: cynomolgus monkey plasma, 50 μg/ml, 37°C, 48-h incubation
# HCC1806 xenograft [5] = test: PK-PD study, single dose, HCC1806 xenograft; assay type: in vivo, BALB/c nude mice
# Experimental: Phoenix WinNonlin 8.1 was used to calculate the PK parameters in the non-compartment model, including t 1/2, T max, C max, AUC0-t, and AUC0-∞. […] The half maximal effective concentration (EC50) and half maximal inhibitory concentration (IC50) were calculated using a nonlinear regression model with sigmoidal fitting. The in vitro antitumor activities of drugs were evaluated by a two-tailed paired t-test.
# [6] = design: method as in PMID 25494821; details: cited from earlier work
# [7] = design: method as in PMID 25944802; details: tumor-bearing mice model; previous studies; cited from earlier work
# Human TROP2 protein [8] = biological target: T1, Human TROP2 protein; test: SPR dynamic affinity to human TROP2; assay type: binding; details: read-out: K d (KD) to recombinant human TROP2
# Experimental: Surface plasmon resonance (SPR) was an alternative method to evaluate dynamic affinity, in which human TROP2 protein was captured with goat anti-human IgG Ab immobilized onto a CM5 sensor chip (Biacore Inc., Raleigh, NC). Serial titrations of SKB264 or IMMU-132 ranging from 0.0823 to 2.22 nM and running buffer were individually injected over the surface, which was captured human TROP2 for an association phase of 120 s, followed by a 600-s dissociation time. Kinetic parameters were calculated using the BIA evaluation software with the average values of two datasets collected on separate days. Association (K a) and dissociation (K d) rate constant values were calculated by fitting analysis assuming a Langmuir binding model ([16]) and a stoichiometry of (1:1) to determine K D (equilibrium dissociation constant) values.
# HCC1806 xenograft [9] = details: for TGI: HCC1806 xenograft (Figure 7D)
# Experimental: Female BALB/c nude mice (Charles River, Beijing, China) were inoculated with 2×10^6 HCC1806 cells in the right front flank. To evaluate in vivo efficacy of ADC, when the average tumor size reached about 120 mm^3, mice were randomized into 7 groups (n = 6 mice/group). The mice were treated with SKB264 or IMMU-132 at doses of 1, 3, and 10 mg/kg twice a week for six times via i.v. injection. To evaluate the PK-PD of ADC, when the average tumor size reached approximately 270 mm^3, mice were randomized into three groups (n = 5/time point). The mice received a single i.v. injection of control hIgG1, SKB264, or IMMU-132 (3 mg/kg), respectively. Blood samples (from five mice) were collected at 1 h, 4 h, 8 h, 24 h, 48 h, 96 h, 192 h, or 336 h post-dosing to detect the concentration of payload at each time point. The rate of TGI (n = 5 mice, measured at endpoint, i.e., 336 h) was determined to evaluate the antitumor efficacy of ADC. Body weight changes and mortality were also recorded to evaluate the tolerability of the testing items.
# [10] = tested on: triple-negative breast cancer; design: method as in PMID 28291390, PMID 25944802; details: drug-resistant triple-negative breast cancer (TNBC) patients; cited from earlier work
# [11] = in vitro stability in human plasma (payload release); assay type: in vitro ADME; details: 50 μg/ml, 37°C, 48-h incubation
# DNA topoisomerase I = biological target: T3, DNA topoisomerase I (Homo sapiens, UniProt P11387); test: topoisomerase I-mediated DNA relaxation assay (cell-free); assay type: biochemical; details: read-out: DNA topoisomerase I inhibition (IC50)
# T3 sequence (P11387 1-765): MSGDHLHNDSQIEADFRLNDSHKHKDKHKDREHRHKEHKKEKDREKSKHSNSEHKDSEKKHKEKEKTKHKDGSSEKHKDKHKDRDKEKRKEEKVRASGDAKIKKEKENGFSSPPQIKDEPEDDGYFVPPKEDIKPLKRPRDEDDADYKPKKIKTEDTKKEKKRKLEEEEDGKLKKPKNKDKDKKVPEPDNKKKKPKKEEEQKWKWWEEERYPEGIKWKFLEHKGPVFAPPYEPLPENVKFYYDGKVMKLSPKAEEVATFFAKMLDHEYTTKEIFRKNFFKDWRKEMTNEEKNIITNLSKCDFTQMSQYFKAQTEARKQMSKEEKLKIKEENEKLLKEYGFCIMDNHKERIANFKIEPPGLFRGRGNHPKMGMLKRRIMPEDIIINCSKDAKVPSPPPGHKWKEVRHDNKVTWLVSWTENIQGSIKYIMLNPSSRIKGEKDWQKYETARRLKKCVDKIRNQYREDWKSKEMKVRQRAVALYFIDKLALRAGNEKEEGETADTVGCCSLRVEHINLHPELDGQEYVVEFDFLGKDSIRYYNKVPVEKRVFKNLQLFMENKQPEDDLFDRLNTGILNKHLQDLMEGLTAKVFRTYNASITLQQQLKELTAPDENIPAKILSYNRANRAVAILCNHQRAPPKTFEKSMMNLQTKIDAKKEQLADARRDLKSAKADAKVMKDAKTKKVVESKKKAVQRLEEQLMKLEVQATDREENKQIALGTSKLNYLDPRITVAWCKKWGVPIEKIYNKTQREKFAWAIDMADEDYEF
# Source text: SKB264 is a TROP2-targeting ADC, which consists of a recombinant humanized anti-TROP2 antibody and a topoisomerase I inhibitor derived from Belotecan (KL610023), integrated together via a sulfonyl pyrimidine-CL2A-carbonate linker. The payload is conjugated with the antibody through irreversible nucleophilic aromatic substitution by tris (2-carboxyethyl) phosphine hydrochloride (TCEP HCl), a reducing agent that can reduce the interchain disulfide bounds. The drug-to-antibody ratio (DAR) of SKB264 was approximately 7.4, which was determined by the reversed-phase chromatography (RPC), and might be the theoretical maximum drug loading number for conventional interchain cysteine conjugation ( Figure 1B ). SKB264 was designed to release payload KL610023 after internalization by TROP2-expressing tumor cells. The inhibitory effect of KL610023 on topoisomerase I was almost similar to that of SN-38, as measured by a topoisomerase I-mediated DNA relaxation assay ( Figure 1C ).
# Figure 1 Structure and characterization of SKB264. […] (B) The distribution of the conjugated drug determined by the reverse-phase chromatography analysis (L-0: Unconjugated light chain, L-1: Light chain conjugated with one payload, H-0: Unconjugated heavy chain, H-1: Heavy chain conjugated with one payload, H-2: Heavy chain conjugated with two payloads, H-3: Heavy chain conjugated with three payloads). […]
# HCC1806 (TROP2+) = test: cytotoxic assay (CellTiter-Glo, 72 h) HCC1806; assay type: cell-based, human; details: HCC1806, payload comparison, Figure 7C, duplicates; read-out: IC50 inhibition of proliferation of HCC1806 cells
# Experimental: Tumor cells were seeded on 96-well plates at the following concentrations: HCC1806 (3,000 cells per well), NCI-N87 (5,000 cells per well), BxPC-3 (2,000 cells per well), Calu-3 (8,000 cells per well), NCI-H23 (TROP2+, 3,000 cells per well), and NCI-H23 (parental, 3,000 cells per well). After overnight incubation, the diluted testing items were added respectively. After 72 h, cell viability was evaluated using a CellTiter-Glo Luminescent Cell Viability Assay (Promega Corp. Madison, WI), following the manufacturer’s instruction.
# [12] = plasma, payload after single i.v. 3 mg/kg SKB264 (KL610023) or IMMU-132 (SN-38), HCC1806 tumor-bearing mice, mean, n = 5
# [13] = tumor, payload after single i.v. 3 mg/kg SKB264 (KL610023) or IMMU-132 (SN-38), HCC1806 tumor-bearing mice, mean, n = 5
molecule,measurement,setting,value
SKB264 mAb: humanized anti-TROP2 mAb with the same amino acid sequence as the antibody of IMMU-132,percentage of endocytosis,HCC1806 cells,increased over time
same,EC50,[1],8.09 nM
same,EC50 determination on Human TROP2,Human TROP2 protein [2],2.731 ng/mL
same,EC50,[3],16.1 nM
same,EC50 of the affinity with monkey TROP2,monkey TROP2,3.399 ng/mL
same,EC50 binding to rat TROP2 protein,rat TROP2 protein,"> 5,000 ng/ml"
same,percentage of endocytosis,NCI-N87 cells,increased over time
same,EC50 binding to mouse TROP2 protein,mouse TROP2 protein,"> 5,000 ng/ml"
sacituzumab govitecan [IMMU-132],release rate of the payload,[4],~100%
same,TGI,"HCC1806 xenograft [5]; HCC1806 xenograft, single i.v. 3 mg/kg, after 13 days (336 h)",21.05%
same,half-life in serum,[6],~ 1 day
same,half-life,[7],14 h
same,Kd,Human TROP2 protein [8],0.293 nM
same,TGI,HCC1806 xenograft [9]; 1 mg/kg i.v. twice a week for six times,48.12%
same,TGI,HCC1806 xenograft [9]; 3 mg/kg i.v. twice a week for six times,70.64%
same,TGI,HCC1806 xenograft [9]; 10 mg/kg i.v. twice a week for six times,153.27%
same,body weight of the experimental mice,"HCC1806 xenograft [9]; HCC1806 xenograft, all treatment groups 1, 3, 10 mg/kg",no significant change
same,objective response rate (ORR),[10],33%
same,release rate of the payload,[11],~100%
CCc1c2c(nc3ccc(O)cc13)-c1cc3c(c(=O)n1C2)COC(=O)[C@]3(O)CC [SN-38],AUC0-∞ of payload,HCC1806 xenograft [5]; [12],22.17 ng·h/mL
same,AUClast of payload,HCC1806 xenograft [5]; [12],19.26 ng·h/mL
same,C max of payload,HCC1806 xenograft [5]; [12],1.32 ng/mL
same,t 1/2 of payload,HCC1806 xenograft [5]; [12],15.5 h
same,AUC0-∞ of payload,HCC1806 xenograft [5]; [13],448 ng·h/g
same,AUClast of payload,HCC1806 xenograft [5]; [13],410 ng·h/g
same,C max of payload,HCC1806 xenograft [5]; [13],4.5 ng/g
same,T max of payload,HCC1806 xenograft [5]; [13],24 h
same,t 1/2 of payload,HCC1806 xenograft [5]; [13],57.4 h
same,IC50,DNA topoisomerase I,1100 nM
same,IC50,HCC1806 (TROP2+),2.61 nM
